Key:
SCC4 OSCC cell line = assay: MTT cell viability assay (cytotoxicity), SCC4; assay type: cell-based, human; conditions: for IC50: Homo sapiens, SCC-4, SCC4, 48 h, MTT, read-out: Oral Tumor Cells SCC4 IC50; for SCC4 S.I.: IC50 normal oral fibroblasts / IC50 SCC4
Description: (§1) Cells and reagents. Human SCC-4, SCC-9, and SCC-25 cells, derived from a human oral tongue SCC (squamous cell carcinoma) were obtained from the ATCC (CRL-1624, CRL-1629, and CRL-1628, respectively) and maintained in 1:1 DMEM/F12 (Dulbecco’s modified Eagle medium and Ham’s F12 medium; Gibco (Thermo Fisher, Waltham, MA, USA)) supplemented with 10% (v/v) FBS (fetal bovine serum; Invitrogen, Thermo Fisher, Waltham, MA, USA) and 400 ng/mL hydrocortisone (Sigma-Aldrich Co., St. Louis, MO, USA). Primary normal human gingival fibroblasts were obtained from the ATCC (PCS-201-018) and maintained in DMEM supplemented with 10% (v/v) FBS and were used in a maximum of six passages. The cells were grown in a humidified environment containing 5% CO2 at 37 °C. […] Carboplatin stock was prepared in water (Fauldcarbo®; LibbsFarmacêutica, São Paulo, SP, Brazil) and was used as a standard anticancer compound.
(§2) Cell viability assay (cytotoxicity) and compound stability assay. The viability of SCC cell lines and primary human fibroblast cells was evaluated using the MTT assay as in [48]. Briefly, the cells were grown in triplicates in 96-well plates (5 × 10^3 cells/well) until confluence. Then, the medium was removed, fresh medium was added, and the cells were returned to the incubator in the presence of different compounds. DMSO at the same concentrations was used as a 100% cell viability control. After 48 h, the cells were incubated with 5 mg/mL MTT reagent (3-(4,5-dimethyl-2-thiazolyl)-2,5-diphenyl-2-H-tetrazolium bromide) (Sigma-Aldrich Co., St. Louis, MO, USA) for 3.5 h. After that, formazan crystals were dissolved in MTT solvent solution (DMSO/methanol 1:1 v/v) and the absorbance at 560 nm was evaluated using an EPOCH microplate spectrophotometer (BioTek Instruments, Winooski, VT, USA) with the background absorbance at 670 nm subtracted.
(§3) Statistical analysis, IC50 calculation. The data are presented as means ±\SD. IC50 values for the MTT assays were obtained by nonlinear regression using the […] 5.0 program (Intuitive Software for Science, San Diego, CA, USA) from at least three independent experiments. A dose–response (inhibitor) vs. response curve using the least squares method was used to determine the IC50, SD, and R^2 of the data. The selectivity index was calculated as SI = IC50 of the compound in normal oral fibroblast cells/IC50 of the same compound for each oral cancer cell line (SCC-4, SCC-9, and SCC-25) and the mean was calculated when indicated.

SCC9 (OSCC cell) = assay: MTT cell viability assay (cytotoxicity), SCC9; assay type: cell-based, human; conditions: for IC50: Homo sapiens, SCC-9, SCC9, 48 h, MTT (Table 1), read-out: SCC9—Oral Cancer IC50; for SCC9 S.I.: IC50 normal oral fibroblasts / IC50 SCC9
Description: as §1, §2, §3

[1] = tested on: Primary normal human gingival fibroblasts; assay: MTT cell viability assay, normal fibroblasts; assay type: cell-based; conditions: Homo sapiens, Fibroblast; primary gingival fibroblasts, 48 h, MTT; read-out: Primary Gingival Fibroblast IC50
Description: as §1, §2, §3

[2] = MTT cell viability assay, normal fibroblasts; assay type: cell-based, human; conditions: human, primary normal human gingival fibroblasts (ATCC PCS-201-018)
Description: as §1, §2, §3

SCC25 OSCC cell line = assay: MTT cell viability assay (cytotoxicity), SCC25; assay type: cell-based, human; conditions: for IC50: Homo sapiens, SCC-25, SCC25, 48 h, MTT, read-out: Oral Tumor Cells SCC25 IC50; for SCC25 S.I.: IC50 normal oral fibroblasts / IC50 SCC25
Description: as §1, §2, §3

melting point	Structure (SMILES)	IC50 (SCC4 OSCC cell line)	SCC4 S.I. (SCC4 OSCC cell line)	IC50 (SCC9 (OSCC cell))	SCC9 S.I. (SCC9 (OSCC cell))	IC50 [1]	viability at 48 h [2]	IC50 (SCC25 OSCC cell line)	SCC25 S.I. (SCC25 OSCC cell line)
250 to 251 °C	COc1ccc(C2C3=C(CC(C)(C)CC3=O)NC3=C2C(=O)c2ccccc2C3=O)c(OC)c1 (stereo not drawn) [4j, 12-(2,4-dimethoxyphenyl)-3,3-dimethyl-3,4-dihydrobenzo[b]acridine-1,6,11(2H,5H,12H)-trione]	18.9 µM	1.2	4.1 µM	5.7	23.6 µM	> 75%	11.5 µM	2.0
242 to 243 °C	COc1cc(C2C3=C(CC(C)(C)CC3=O)NC3=C2C(=O)c2ccccc2C3=O)cc(OC)c1OC (stereo not drawn) [4m, 12-(3,4,5-trimethoxyphenyl)-3,3-dimethyl-3,4-dihydrobenzo[b]acridine-1,6,11(2H,5H,12H)-trione]	11 µM	0.7	2.06 µM	3.8	7.86 µM	> 75%	7.41 µM	1.1
